Values joined by “and” are separate entries in the source; they are usually repeats but may differ in a detail not shown here. Equal entries are not always repeated. Marks after values point to notes of the source that are not given here.
How the values were obtained:
[1] = tested on: MPTP-lesioned squirrel monkeys; test: Parkinsonism rating on or off levodopa in MPTP-lesioned monkeys; format: in vivo, Saimiri sciureus; conditions: for Parkinson Ratings Expt 1 / Parkinson Ratings Expt 2 (crossover): individual animals, scale 0-28; for Parkinson Ratings Mean ± SE (n): n=5
Method: (§1) 1-Methyl-4-phenyl-1,2,3,6-tetrahydropyridine (MPTP) administration: Prior to lesioning, the animals were allowed to acclimate to the colony and rated for parkinsonism as described (Langston et al. Ann Neurol. 2000; 47:S79-89). All values were within the normal range. The monkeys were then injected subcutaneously with 2.0 mg/kg MPTP (Sigma, St-Louis, Mo.) dissolved in saline. The animals were rated for parkinsonism 3-4 weeks after MPTP administration. The disability scores ranged from 0 (normal) to 28 for a severely parkinsonian animal. Animals were assessed for 1) spatial hypokinesia (reduction in use of the available cage space), 2) body bradykinesia (increased slowness in body movement), 3) left and 4) right manual dexterity, 5) balance, 6) freezing and 7) action tremor. If they were not parkinsonian, MPTP injection (1.0-2.0 mg/kg) was repeated from 2-5 times for total doses of 3.5 to 13.5 mg/kg. Despite multiple MPTP dosing, two of the animals were not stably parkinsonian.
Data analyses: The levodopa treatment protocol used in the present study involved a 5-day-on/2-day-off schedule. Parkinsonian ratings were done on Monday and Friday of each week, with the score averaged over the two days. Dyskinesias ratings were determined by averaging the scores on Wednesday and Thursday of each week. All values are expressed as the mean±SE of the indicated number of animals. Results were compared using paired t-tests or analysis of variance (ANOVA) followed by Bonferroni multiple comparison post hoc test, using Prism® program (GraphPad Software, Inc, San Diego, Calif.). A level of 0.05 was considered significant.
White bars indicate no nicotine treatment and black bars indicate nicotine treatment. Parkinsonism was evaluated immediately before the afternoon L-dopa dose and 1.5 to 2 hours after L-dopa treatment, when a maximal antiparkinsonian effect is anticipated. Two of the seven animals in the study were not parkinsonian, and therefore were not included in this analysis. Error bars are the means±standard error of five animals before and after crossover of nicotine treatment. **p<0.01, as compared with the same group with no L-dopa treatment by a Mann-Withney test.

[2] = nicotine in Gatorade up to 650 μg/ml
Method: Nicotine treatment: All monkeys (n=7) were then given a drinking solution for 3 weeks consisting of commercially available orange Gatorade® to mask nicotine's bitter taste (FIG. 1). The control group (n=4) was continued on Gatorade® only, while nicotine (free base) was added to the Gatorade of the treated group (n=3). Nicotine dosing was started at 50 μg/ml for 1 week, 150 μg/ml for 1 week, with the concentration increased by 150 μg increments/week over the next few weeks, up to 650 μg/ml (FIG. 1).

[3] = tested on: Squirrel (Saimiri sciureus) monkeys with nigrostriatal damage; test: Levodopa-induced dyskinesias in MPTP-lesioned monkeys, nicotine in drinking solution before levodopa (Example 1); format: in vivo; conditions: for dyskinetic ratings 3 hours after the afternoon levodopa treatment: scale 0-4, mean ± SE
Method: Animals: Squirrel (Saimiri sciureus) monkeys (n=7) were purchased from World Wide Primates (Miami, Fla.). The animals weighed between 0.6-0.9 kg and were in mid to late adulthood as determined from their general appearance (dentition, fur, other). Female monkeys were used since older animals were available that may better model Parkinson's disease. The animals were placed in quarantine upon arrival, and maintained in a temperature-controlled room (27±3° C.) with a relative humidity>30%, under a 13/11-hour light/dark cycle. Monkey food chow and fruits/vegetables were provided once daily, with water provided ad libitum. The monkeys were housed in separate cages to allow for clear behavioral assessments. The animals were released from quarantine after 1 month and treatments initiated. All procedures conformed to the National Institutes of Health Guide for the Care and Use of Laboratory Animals and were approved by the Institutional Animal Care and Use Committee at the Parkinson's Institute.
as §1
Nicotine treatment: All monkeys (n=7) were then given a drinking solution for 3 weeks consisting of commercially available orange Gatorade® to mask nicotine's bitter taste (FIG. 1). The control group (n=4) was continued on Gatorade® only, while nicotine (free base) was added to the Gatorade of the treated group (n=3). Nicotine dosing was started at 50 μg/ml for 1 week, 150 μg/ml for 1 week, with the concentration increased by […] over the next few weeks, up to 650 μg/ml (FIG. 1).
Levodopa administration: Monkeys were administered levodopa/carbidopa (5 mg/kg and 1.25 mg/kg, respectively), prepared by crushing a tablet of Sinemet® CR 100/25 (DuPont Pharma) and dissolving it in water. This dose of levodopa is within the range of that prescribed to Parkinson's disease patients. The monkeys were gavaged twice daily at 3.5-hour intervals for 8 weeks at a time using a 5-day-on/2-day-off schedule (Hsu et al., J Pharmacol Exp Ther. 2004; 311:770-777). During levodopa treatment, the monkeys were given fruits in the morning and food pellets 3.5 hours after the afternoon levodopa dose to optimize gastrointestinal absorption.
Dyskinesias were rated from videotapes, as described (Hsu et al., J Pharmacol Exp Ther. 2004; 311:770-777). This included a one hour baseline period (no drugs) from ˜8:00-9:00 AM, followed by two 3.5-hour treatment periods with levodopa starting at ˜9:00 AM and ˜12:30 PM. Dyskinesias were rated for 2-minute periods at 30-minute intervals by two independent raters blinded to treatment. They were rated on a scale of 0 (no dyskinesias) to 4; a score of 1 was indicative of subtle dyskinesias that were not sustained; 2, mild dyskinesias that were sustained; 3, moderate dyskinesias that impaired the ability to remain stationary; 4, severe dyskinesias that were generalized and incapacitating.
Data analyses: The levodopa treatment protocol used in the present study involved a 5-day-on/2-day-off schedule.

[4] = on levodopa treatment, 1.5-2 hours after dosing

## CN1CCCC1c1cccnc1 (stereo not shown) [Nicotine, S-3-(1-methyl-2-pyrrolidinyl)pyridine]
[1]; no levodopa treatment
  Parkinson Ratings Expt 1: 5.2 and 6.6
  Parkinson Ratings Expt 2 (crossover): 4.1 and 6.4 and 5.9
  Parkinson Ratings Mean ± SE (n): 5.6 ± 0.5 (5)
[1]; [4]
  Parkinson Ratings Expt 1: 1.7 and 1.5
  Parkinson Ratings Expt 2 (crossover): 0.8 (2×) and 0.4
  Parkinson Ratings Mean ± SE (n): 1.0 ± 0.2 (5)
[1]; on or off levodopa treatment
  effect on parkinsonism: did not affect
[2]
  effects on body weight or fluid intake: no significant effects
[3]; all time points vs monkeys not receiving nicotine
  total dyskinesias (area under the curve of the time course): significant decrease
[3]; animals pretreated with nicotine, levodopa naïve monkeys
  decline in levodopa-induced dyskinesias: ~60%
[3]; nicotine up to 650 μg/ml in drinking solution, vs monkeys not receiving nicotine, entire 8-week period
  levodopa-induced dyskinesias over the course of the day (time course): significantly reduced
[3]; throughout the 8-week levodopa treatment vs control
  peak dyskinesias (maximal dyskinetic score during the morning or afternoon): decreased
[3]; week 2/3 of levodopa treatment, levodopa/carbidopa 5/1.25 mg/kg twice daily
  dyskinetic ratings 3 hours after the afternoon levodopa treatment: 0.3 ± 0.3
[3]; week 4 of levodopa treatment
  dyskinetic ratings 3 hours after the afternoon levodopa treatment: 0*
[3]; week 6 of levodopa treatment
  dyskinetic ratings 3 hours after the afternoon levodopa treatment: 0*
[3]; week 8 of levodopa treatment
  dyskinetic ratings 3 hours after the afternoon levodopa treatment: 0.2 ± 0.2
